Laboratory results published in paper PMC7663103, “Homo-Tris-Nitrones Derived from α-Phenyl-N-tert-butylnitrone: Synthesis, Neuroprotection and Antioxidant Properties” (International Journal of Molecular Sciences, 2020).

Biological target: T1, soybean lipoxygenase (Glycine max, UniProt P08170)
T1 construct: gene LOX1.1
T1 sequence (P08170 1-839): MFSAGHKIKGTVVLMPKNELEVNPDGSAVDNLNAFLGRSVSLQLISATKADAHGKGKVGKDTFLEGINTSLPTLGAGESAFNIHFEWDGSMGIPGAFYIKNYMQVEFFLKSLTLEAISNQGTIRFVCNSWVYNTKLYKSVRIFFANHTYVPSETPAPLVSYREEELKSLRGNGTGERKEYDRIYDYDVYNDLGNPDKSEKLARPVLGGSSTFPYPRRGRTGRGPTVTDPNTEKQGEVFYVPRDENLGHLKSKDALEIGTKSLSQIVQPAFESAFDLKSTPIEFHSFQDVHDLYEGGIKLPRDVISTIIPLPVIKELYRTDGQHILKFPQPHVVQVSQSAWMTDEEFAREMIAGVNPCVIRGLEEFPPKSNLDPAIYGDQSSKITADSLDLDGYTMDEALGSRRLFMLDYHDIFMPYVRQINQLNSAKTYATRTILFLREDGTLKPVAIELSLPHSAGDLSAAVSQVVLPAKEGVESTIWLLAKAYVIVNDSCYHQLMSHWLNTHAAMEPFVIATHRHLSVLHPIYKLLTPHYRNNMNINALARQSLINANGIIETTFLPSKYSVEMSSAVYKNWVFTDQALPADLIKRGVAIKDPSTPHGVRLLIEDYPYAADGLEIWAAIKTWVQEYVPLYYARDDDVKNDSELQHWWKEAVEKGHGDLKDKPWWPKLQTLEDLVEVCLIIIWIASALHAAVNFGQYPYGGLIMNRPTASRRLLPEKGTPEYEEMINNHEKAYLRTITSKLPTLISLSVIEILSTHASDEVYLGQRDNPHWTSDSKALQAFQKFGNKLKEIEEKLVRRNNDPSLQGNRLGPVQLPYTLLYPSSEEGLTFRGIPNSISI
Assay: UV assay of sodium linoleate conversion to 13-hydroperoxylinoleic acid at […] nm
Assay type: biochemical
Conditions: read-out: LOX Inhibition (% or IC50 [μM]) (±SEM)

IC50 [µM]	SMILES
100 ± 1.1	C/[N+]([O-])=C/c1cc(/C=[N+](/C)[O-])cc(/C=[N+](/C)[O-])c1 [HTN1, (1. Z,1′Z,1″Z)-1,1′,1″-(Benzene-1,3,5-triyl)tris(N-methylmethanimineoxide)]
70 ± 2.6	[O-]/[N+](=C\c1cc(/C=[N+](\[O-])Cc2ccccc2)cc(/C=[N+](\[O-])Cc2ccccc2)c1)Cc1ccccc1 [HTN3, (1. Z,1′Z,1″Z)-1,1′,1″-(Benzene-1,3,5-triyl)tris(N-benzylmethanimineoxide)]
